Measured values from US6709864B1, “Adipogenic differentiation of human mesenchymal stem cells” (Osiris Therapeutics, Inc., priority 1996, dated 2004).

Legend:
[1] = system: human mesenchymal stem cells; experiment: Nile Red / DAPI fluorescence plate reader assay of adipogenic differentiation of hMSCs; type: cell-based
Experimental: These experiments were performed to determine the effect of adding varying concentrations of indomethacin to mesenchymal stem cells in culture to induce adipogenic differentiation. […] We also tested indomethacin under the same conditions however in the absence of methyl isobutylxanthine. The results were compared visually by observing the accumulation of lipid within the cells and by staining the lipid with the fluorescent lipid-soluble dye Nile Red and reading on a fluorescence plate reader as described in Example 6. These experiments were performed to determine the effect of adding varying concentrations of 15-deoxy Δ^12,14 -prostaglandin J2 (15d-PGJ2) to […] in culture to induce adipogenic differentiation. […] We also tested 15d-PGJ2 under the same conditions without methyl isobutylxanthine present. hMSCs were grown in 12 or 24 well tissue culture plates and were treated with adipogenic inducing agents as described above when the cells were post-confluent. After three treatments, the cells were allowed to accumulate lipid for an additional week prior to analysis. The cell layers were rinsed with Dulbecco's modified PBS (D.PBS) and fixed for 30 minutes in 10% Neutral Buffered Formalin. The plates were then rinsed with D. PBS and incubated for 30 minutes with 0.02% Saponin, 0.8 μg/ml DAPI (from an aqueous 2 mg/ml stock) and 1 μg/ml Nile Red (from a 1 mg/ml stock in acetone) in D. PBS. Plates were then rinsed three times with D.PBS.

[2] = system: human mesenchymal stem cells; experiment: Adipogenesis assay of hMSCs, lipid vacuoles observed by microscopy / Oil Red O; type: cell-based; conditions: methyl isobutylxanthine alone in normal hMSC media during induction, then 14 days Adipogenic Maintenance Media
Experimental: Human MSCs are isolated from the red bone marrow of volunteer donors as described in U.S. Pat. No.5,486,359. The cells are grown until colonies are well established and at this point the cells are subcultured (1 to 3) or they can be taken to assay for in vitro adipogenesis. For the adipogenesis assay, hMSCs are subcultured into 35 mm tissue culture dishes at 100,000 cells per dish and fed with 2 milliliters normal hMSC Media (Dulbecco's Modified Eagle's Media (DMEM), 10% selected Fetal Bovine Serum (FBS) and antibiotic/antimycotic mixture (IX) (Life Technologies, Inc.)) and cells are maintained at 37° C., 5% CO2 and 90% humidity. The cells are refed with the fresh media every third day and are allowed to multiply and become confluent. The cells are maintained after reaching confluence by refeeding every third day and this time period of post confluence culturing enhances the adipogenic response in the next step (at least out to 14 days). The differentiation into adipocytes is initiated by changing the media to 2 ml of Adipogenic Induction Media (DMEM with 10% fetal bovine serum containing 10 μg/ml insulin (human recombinant, Boehringer Mannheim Corp.), 0.5 mM methyl isobutylxanthine (MIX)(Sigma Chemical Co.), 1 μM dexamethasone (Dex)(Sigma Chemical Co.)). […]

[3] = 1 μM 15d-PGJ2 with insulin only (I)
[4] = 10 μM 15d-PGJ2 with insulin only (I)
[5] = 50 μM indomethacin in DI (no MIX)
[6] = 50 μM indomethacin with insulin only (I)
[7] = 100 μM indomethacin in DI (no MIX)
[8] = 100 μM indomethacin with insulin only (I)
[9] = 200 μM indomethacin in DI (no MIX)
[10] = 200 μM indomethacin with insulin only (I)

CCCCC/C=C/C=C1/C(=O)C=C[C@@H]1C/C=C\CCCC(=O)O [15d-PGJ2, 15-deoxy Δ^12,14-prostaglandin J2]
DAPI (cor) ([1]; 1 μM 15d-PGJ2 in DI (no MIX)): 5.99 relative fluorescence intensity
Nile red (cor) ([1]; 1 μM 15d-PGJ2 in DI (no MIX)): 1.19 relative fluorescence intensity
Nile red/DAPI ([1]; 1 μM 15d-PGJ2 in DI (no MIX)): 0.20
DAPI (cor) ([1]; 1 μM 15d-PGJ2 in MDI): 6.53 relative fluorescence intensity
Nile red (cor) ([1]; 1 μM 15d-PGJ2 in MDI): 13.16 relative fluorescence intensity
Nile red/DAPI ([1]; 1 μM 15d-PGJ2 in MDI): 2.02
DAPI (cor) [1, 3]: 4.98 relative fluorescence intensity
Nile red (cor) [1, 3]: 0.83 relative fluorescence intensity
Nile red/DAPI [1, 3]: 0.17
DAPI (cor) ([1]; 10 μM 15d-PGJ2 in MDI): 7.22 relative fluorescence intensity
Nile red (cor) ([1]; 10 μM 15d-PGJ2 in MDI): 17.56 relative fluorescence intensity
Nile red/DAPI ([1]; 10 μM 15d-PGJ2 in MDI): 2.43
DAPI (cor) [1, 4]: 5.75 relative fluorescence intensity
Nile red (cor) [1, 4]: 0.85 relative fluorescence intensity
Nile red/DAPI [1, 4]: 0.15
adipogenic response ([1]; 15d-PGJ2 1 or 10 μM in MDI induction medium): dose dependent increase
adipogenic effectiveness compared with indomethacin ([1]; 15d-PGJ2 at 10 μM added to MDI medium): nearly as effective as indomethacin
effect on adipogenesis ([1]; 15d-PGJ2 with insulin alone): no significant effect
DAPI (cor) ([1]; DI + 10 15d-PGJ2 (no MIX)): 5.36 relative fluorescence intensity
Nile red (cor) ([1]; DI + 10 15d-PGJ2 (no MIX)): 2.57 relative fluorescence intensity
Nile red/DAPI ([1]; DI + 10 15d-PGJ2 (no MIX)): 0.48
adipogenic response ([1]; DI + 15d-PGJ2): weak adipogenic response

COc1ccc2c(c1)c(CC(=O)O)c(C)n2C(=O)c1ccc(Cl)cc1 [indomethacin]
DAPI (cor) [1, 5]: 6.66 relative fluorescence intensity
Nile red (cor) [1, 5]: 3.11 relative fluorescence intensity
Nile red/DAPI [1, 5]: 0.47
DAPI (cor) ([1]; 50 μM indomethacin in MDI): 7.8 relative fluorescence intensity
Nile red (cor) ([1]; 50 μM indomethacin in MDI): 11.72 relative fluorescence intensity
Nile red/DAPI ([1]; 50 μM indomethacin in MDI): 1.50
DAPI (cor) [1, 6]: 5.12 relative fluorescence intensity
Nile red (cor) [1, 6]: 0.64 relative fluorescence intensity
Nile red/DAPI [1, 6]: 0.13
DAPI (cor) [1, 7]: 6.77 relative fluorescence intensity
Nile red (cor) [1, 7]: 5.35 relative fluorescence intensity
Nile red/DAPI [1, 7]: 0.79
DAPI (cor) ([1]; 100 μM indomethacin in MDI): 7.11 relative fluorescence intensity
Nile red (cor) ([1]; 100 μM indomethacin in MDI): 16.39 relative fluorescence intensity
Nile red/DAPI ([1]; 100 μM indomethacin in MDI): 2.31
DAPI (cor) [1, 8]: 5.81 relative fluorescence intensity
Nile red (cor) [1, 8]: 0.74 relative fluorescence intensity
Nile red/DAPI [1, 8]: 0.13
DAPI (cor) [1, 9]: 6.03 relative fluorescence intensity
Nile red (cor) [1, 9]: 10.08 relative fluorescence intensity
Nile red/DAPI [1, 9]: 1.67
DAPI (cor) ([1]; 200 μM indomethacin in MDI): 8.72 relative fluorescence intensity
Nile red (cor) ([1]; 200 μM indomethacin in MDI): 20.27 relative fluorescence intensity
Nile red/DAPI ([1]; 200 μM indomethacin in MDI): 2.32
DAPI (cor) [1, 10]: 5.28 relative fluorescence intensity
Nile red (cor) [1, 10]: 0.74 relative fluorescence intensity
Nile red/DAPI [1, 10]: 0.14
commitment of hMSCs to adipocyte lineage and intracellular lipid accumulation ([1]; indomethacin 50-200 μM in MDI induction medium): dose dependent increase
hMSCs becoming adipocytes ([1]; indomethacin at 200 μM in MDI): ~100%
Nile Red staining relative to MDI sample alone ([1]; indomethacin at 200 μM in MDI, fluorescent plate reader): nearly three times that of the MDI sample alone
adipogenic differentiation level relative to MDI+indomethacin ([1]; indomethacin in DMEM with dexamethasone and insulin only (DI)): approximately half that of the MDI+indomethacin sample
effect on hMSC adipogenesis ([1]; indomethacin with insulin): no significant effect

CC(C)Cn1c(=O)n(C)c(=O)c2[nH]cnc21 [methyl isobutylxanthine, 1-methyl-3-isobutylxanthine]
cell phenotype (morphology) [2]: retain a flat fibroblastic phenotype
